Results on 8 molecules are retold here after PubChem BioAssay AID328 (DTP/NCI, 2004).

Values joined by “and” are separate entries in the source; they are usually repeats but may differ in a detail not shown here. Equal values may be shown once. Toxic doses and inconclusive results are not listed.

In the assay the test system is BDF1 mice, P388 leukemia ip, median survival T/C. The experiment in a line: NCI In Vivo Anticancer Drug Screen. Data for tumor model P388 Leukemia (intraperitoneal) in B6D2F1 (BDF1) mice. As to conditions: endpoint: median survival time, higher = longer survival. In outline: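 Transplantable tumour in mice; compound vs vehicle dosing; survival scored; ratio of treated to control reported.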

Where [1] appears, read: dose: 25.0 mg/kg/injection, schedule: Q01DX009 (ip), vehicle: saline.
The mark [2] stands for this setting: dose: 50.0 mg/kg/injection, schedule: Q01DX009 (ip), vehicle: saline.
The mark [3] stands for this setting: dose: 50.0 mg/kg/injection, schedule: Q01DX009 (ip), vehicle: saline with Tween-80.
The mark [4] stands for this setting: dose: 200.0 mg/kg/injection, schedule: Q01DX009 (ip), vehicle: saline with Tween-80.
Where [5] appears, read: dose: 25.0 mg/kg/injection, schedule: Q04DX003 (ip), vehicle: saline.
Setting [6] is: dose: 100.0 mg/kg/injection, schedule: Q01DX009 (ip), vehicle: saline.
Setting [7] is: dose: 12.5 mg/kg/injection, schedule: Q01DX009 (ip), vehicle: saline.

As to `CCCCCCCCCCCCCC(=O)O[C@@H]1[C@@H](C)[C@@]2(O)[C@@H](C=C(CO)C[C@]3(OC)C(=O)C(C)=C[C@@H]23)[C@@H]2C(C)(C)[C@]12OC(C)=O`, the T/C reads like this: (dose: 0.03 mg/kg/injection, schedule: Q01DX009 (ip), vehicle: saline + alcohol) 91 % of control; (dose: 0.06 mg/kg/injection, schedule: Q01DX009 (ip), vehicle: Klucel (hydroxypropylcellulose) (HPC)) 91 % of control; (dose: 0.06 mg/kg/injection, schedule: Q01DX009 (ip), vehicle: saline + alcohol) 94 % of control; (dose: 0.12 mg/kg/injection, schedule: Q01DX009 (ip), vehicle: Klucel (hydroxypropylcellulose) (HPC)) 94 % of control; (dose: 0.12 mg/kg/injection, schedule: Q01DX009 (ip), vehicle: saline + alcohol) 117 % of control; (dose: 0.25 mg/kg/injection, schedule: Q01DX009 (ip), vehicle: Klucel (hydroxypropylcellulose) (HPC)) 94 % of control. In addition, the T/C is 94 % of control (dose: 0.25 mg/kg/injection, schedule: Q01DX009 (ip), vehicle: saline + alcohol); 110 % of control (dose: 0.5 mg/kg/injection, schedule: Q01DX009 (ip), vehicle: Klucel (hydroxypropylcellulose) (HPC)); 107 % of control (dose: 0.5 mg/kg/injection, schedule: Q01DX009 (ip), vehicle: saline + alcohol); 94 % of control (dose: 1.0 mg/kg/injection, schedule: Q01DX009 (ip), vehicle: Klucel (hydroxypropylcellulose) (HPC)); 100 % of control (dose: 1.0 mg/kg/injection, schedule: Q01DX009 (ip), vehicle: saline + alcohol); 106 % of control (dose: 3.1 micrograms/kg/injection, schedule: Q01DX009 (ip), vehicle: gum acacia). The T/C was 94 % of control (dose: 3.1 micrograms/kg/injection, schedule: Q01DX009 (ip), vehicle: saline + alcohol); 87 % of control (dose: 3.1 micrograms/kg/injection, schedule: Q01DX009 (ip), vehicle: saline with Tween-80); 97 % of control (dose: 6.2 micrograms/kg/injection, schedule: Q01DX009 (ip), vehicle: gum acacia); 87 % of control (dose: 6.2 micrograms/kg/injection, schedule: Q01DX009 (ip), vehicle: saline + alcohol); 97 % of control (dose: 6.2 micrograms/kg/injection, schedule: Q01DX009 (ip), vehicle: saline with Tween-80); 87 % of control (dose: 12.5 micrograms/kg/injection, schedule: Q01DX009 (ip), vehicle: gum acacia). In addition, the T/C by setting is: (dose: 12.5 micrograms/kg/injection, schedule: Q01DX009 (ip), vehicle: saline + alcohol) 94 % of control; (dose: 12.5 micrograms/kg/injection, schedule: Q01DX009 (ip), vehicle: saline with Tween-80) 160 % of control; (dose: 25.0 micrograms/kg/injection, schedule: Q01DX009 (ip), vehicle: saline + alcohol) 103 % of control; (dose: 25.0 micrograms/kg/injection, schedule: Q01DX009 (ip), vehicle: saline with Tween-80) 103 % of control; (dose: 50.0 micrograms/kg/injection, schedule: Q01DX009 (ip), vehicle: gum acacia) 122 % of control; (dose: 50.0 micrograms/kg/injection, schedule: Q01DX009 (ip), vehicle: saline + alcohol) 101 % of control. Moreover, the T/C was 87 % of control (dose: 50.0 micrograms/kg/injection, schedule: Q01DX009 (ip), vehicle: saline with Tween-80); 106 % of control (dose: 100.0 micrograms/kg/injection, schedule: Q01DX009 (ip), vehicle: gum acacia); 97 % of control (dose: 100.0 micrograms/kg/injection, schedule: Q01DX009 (ip), vehicle: saline + alcohol); 122 % of control (dose: 100.0 micrograms/kg/injection, schedule: Q01DX009 (ip), vehicle: saline with Tween-80); 113 % of control (dose: 200.0 micrograms/kg/injection, schedule: Q01DX009 (ip), vehicle: gum acacia); 97 % of control (dose: 200.0 micrograms/kg/injection, schedule: Q01DX009 (ip), vehicle: saline + alcohol). Moreover, the T/C runs as follows: (dose: 200.0 micrograms/kg/injection, schedule: Q01DX009 (ip), vehicle: saline with Tween-80) 106 % of control; (dose: 400.0 micrograms/kg/injection, schedule: Q01DX009 (ip), vehicle: gum acacia) 160 % of control; (dose: 400.0 micrograms/kg/injection, schedule: Q01DX009 (ip), vehicle: saline + alcohol) 94 % of control; (dose: 400.0 micrograms/kg/injection, schedule: Q01DX009 (ip), vehicle: saline with Tween-80) 94 % of control; (dose: 800.0 micrograms/kg/injection, schedule: Q01DX009 (ip), vehicle: gum acacia) 94 % of control; (dose: 800.0 micrograms/kg/injection, schedule: Q01DX009 (ip), vehicle: saline + alcohol) 106 % of control. The T/C (dose: 800.0 micrograms/kg/injection, schedule: Q01DX009 (ip), vehicle: saline with Tween-80) is 169 % of control.

In the case of `CN(C)N=Nc1cn(C2OC(CO)C(O)C2O)c(=O)[nH]c1=O` (stereo unspecified), the T/C runs as follows: (dose: 9.0 mg/kg/injection, schedule: Q01DX009 (ip), vehicle: saline) 115 % of control; (dose: 18.0 mg/kg/injection, schedule: Q01DX009 (ip), vehicle: saline) 110 % of control; under setting [1], 100 % of control; (dose: 37.5 mg/kg/injection, schedule: Q01DX009 (ip), vehicle: saline) 300 % of control and 120 % of control; under setting [2], 120 % of control; (dose: 75.0 mg/kg/injection, schedule: Q01DX009 (ip), vehicle: saline) 300 % of control and 150 % of control. Further, the T/C is 300 % of control and 180 % of control (dose: 150.0 mg/kg/injection, schedule: Q01DX009 (ip), vehicle: saline); 150 % of control (dose: 400.0 mg/kg/injection, schedule: Q01DX009 (ip), vehicle: saline).

Take `N#Cc1ccc(C(=O)/C=C/c2ccc(OCc3ccccc3)cc2)cc1`: the T/C is 91 % of control under setting [3]; 89 % of control (dose: 100.0 mg/kg/injection, schedule: Q01DX009 (ip), vehicle: saline with Tween-80); 91 % of control under setting [4].

Consider `CCOC(=O)Nc1cc(NC(C)CCCN(CC)CC)c2ncc(-c3ccccc3)nc2n1` (stereo unspecified) (tested in a mixture with another compound), for which the T/C runs as follows: under setting [1], 100 % of control; under setting [5], 104 % of control; under setting [2], 100 % of control; (dose: 50.0 mg/kg/injection, schedule: Q04DX003 (ip), vehicle: saline) 100 % of control; under setting [6], 104 % of control; (dose: 100.0 mg/kg/injection, schedule: Q04DX003 (ip), vehicle: saline) 104 % of control.

`CCCCCCCCCCCCCCCCNCCO`: the T/C is 110 % of control (dose: 50.0 mg/kg/injection, schedule: Q01DX009 (ip), vehicle: Klucel (hydroxypropylcellulose) (HPC)) and 112 % of control (dose: 100.0 mg/kg/injection, schedule: Q01DX009 (ip), vehicle: Klucel (hydroxypropylcellulose) (HPC)).

`O=C(c1ccccc1)C12CC3CC(CC(C3)C1)C2`: the T/C (dose: 6.25 mg/kg/injection, schedule: Q01DX009 (ip), vehicle: saline with Tween-80) is 90 % of control and 98 % of control; the T/C (dose: 12.5 mg/kg/injection, schedule: Q01DX009 (ip), vehicle: saline with Tween-80) is 90 % of control; the T/C (dose: 25.0 mg/kg/injection, schedule: Q01DX009 (ip), vehicle: saline with Tween-80) is 90 % of control and 99 % of control; the T/C under setting [3] is 97 % of control; the T/C under setting [4] is 107 % of control.

For `ClCCCCCCCCc1ccccc1`, the T/C is 102 % of control under setting [7]; 100 % of control under setting [1]; 122 % of control (dose: 44.0 mg/kg/injection, schedule: Q04DX003 (ip), vehicle: saline with Tween-80); 107 % of control under setting [2]; 100 % of control (dose: 66.0 mg/kg/injection, schedule: Q04DX003 (ip), vehicle: saline with Tween-80); 100 % of control under setting [6]. In addition, the T/C was 118 % of control (dose: 100.0 mg/kg/injection, schedule: Q04DX003 (ip), vehicle: saline with Tween-80) and 108 % of control (dose: 200.0 mg/kg/injection, schedule: Q01DX009 (ip), vehicle: saline).

Turning to `O=C(O)C(O)C(O)C(=O)O.O=C(O)C(O)C(O)C(=O)O.[O]=[V].[O]=[V]` (stereo unspecified), the T/C is 110 % of control (dose: 3.13 mg/kg/injection, schedule: Q01DX009 (ip), vehicle: saline); 90 % of control and 100 % of control (dose: 6.25 mg/kg/injection, schedule: Q01DX009 (ip), vehicle: saline); 100 % of control (dose: 6.25 mg/kg/injection, schedule: Q04DX003 (ip), vehicle: saline); 95 % of control and 100 % of control under setting [7]; 95 % of control and 100 % of control (dose: 12.5 mg/kg/injection, schedule: Q04DX003 (ip), vehicle: saline); 90 % of control and 88 % of control under setting [1]. Moreover, under setting [5], the T/C is 100 % of control.
